Where a name gives a salt, the structure may show the parent alone.

T1 sequence (P56817 46-501): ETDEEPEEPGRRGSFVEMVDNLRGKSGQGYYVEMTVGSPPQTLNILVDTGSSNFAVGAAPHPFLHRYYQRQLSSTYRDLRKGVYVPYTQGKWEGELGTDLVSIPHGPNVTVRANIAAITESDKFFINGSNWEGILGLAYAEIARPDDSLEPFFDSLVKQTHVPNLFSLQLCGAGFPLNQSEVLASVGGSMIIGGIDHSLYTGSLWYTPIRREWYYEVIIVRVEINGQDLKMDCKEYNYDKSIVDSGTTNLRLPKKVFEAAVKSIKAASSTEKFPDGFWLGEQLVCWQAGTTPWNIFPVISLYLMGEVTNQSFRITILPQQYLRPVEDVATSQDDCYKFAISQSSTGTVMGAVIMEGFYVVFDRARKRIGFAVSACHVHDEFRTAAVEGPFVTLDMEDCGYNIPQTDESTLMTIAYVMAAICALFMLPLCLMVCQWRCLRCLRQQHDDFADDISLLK

One experiment addresses T1, BACE1 (Homo sapiens, UniProt P56817).
T1 construct: endogenous in cells; host or cells: HEK293 stably transfected with human APP695 wt
In words: Cellular Aβ-lowering assay a): HEK293 cells expressing human APP695, Aβ40 ELISA. It counts as cell-based. Conditions: Aβ40 in supernatant by ELISA, 18-20 hrs incubation. On the procedure:
Cellular Aβ-Lowering Assay:
a) Human HEK293 cells which are stably transfected with a vector expressing a cDNA of the human APP wt gene (APP695) were used to assess the potency of the compounds in a cellular assay. The cells were seeded in 96-well microtiter plates in cell culture medium (Iscove, plus 10% (v/v) fetal bovine serum, glutamine, penicillin/streptomycin) to about 80% confluence and the compounds were added at a 10× concentration in 1/10 volume of medium without FCS containing 8% DMSO (final concentration of DMSO was kept at 0.8% v/v). After 18-20 hrs incubation at 37° C. and 5% CO2 in a humidified incubator the culture supernatant was harvested for the determination of Aβ40 concentrations. 96 well ELISA plates (e.g., Nunc MaxiSorb) were coated with monoclonal antibody which specifically recognize the C-terminal end of Aβ40 (Brockhaus et al., NeuroReport 9, 1481-1486; 1998). After blocking of non-specific binding sites with e.g. 1% BSA and washing, the culture supernatants were added in suitable dilutions together with a horseradish peroxidase-coupled Aβ detection antibody (e.g., antibody 4G8, Senetek, Maryland Heights, Mo.) and incubated for 5 to 7 hrs. Subsequently the wells of the microtiter plate were washed extensively with Tris-buffered saline containing 0.05% Tween 20 and the assay was developed with tetramethylbenzidine/H2O2 in citric acid buffer. After stopping the reaction with one volume 1 N H2SO4 the reaction was measured in an ELISA reader at 450 nm wavelength. The concentrations of Aβ in the culture supernatants were calculated from a standard curve obtained with known amounts of pure Aβ peptide.
For orientation: ELISA stands for enzyme-linked immunosorbent assay.
The IC50 is the concentration needed to halve the response being measured. `C[C@]1(c2cc(-c3cncnc3)ccc2F)N=C(N)COCC1(F)F` [Example 1, (R)-6,6-Difluoro-5-(2-fluoro-5-pyrimidin-5-yl-phenyl)-5-methyl-2,5,6,7-tetrahydro-[1,4]oxazepin-3-ylamine formate] showed an IC50 of 253 nM.

`CC1(C)OCC(N)=N[C@](C)(c2cc(-c3cncnc3)ccc2F)C1(F)F` [Example 2, (R)-6,6-Difluoro-5-(2-fluoro-5-pyrimidin-5-yl-phenyl)-5,7,7-trimethyl-2,5,6,7-tetrahydro-[1,4]oxazepin-3-ylamine]: the IC50 was 56 nM.

Turning to `CC1(C)OCC(N)=N[C@](C)(c2cc(-c3cc(F)cc(F)c3)ccc2F)C1(F)F` [Example 3, (R)-6,6-Difluoro-5,7,7-trimethyl-5-(4,3′,5′-trifluoro-biphenyl-3-yl)-2,5,6,7-tetrahydro-[1,4]oxazepin-3-ylamine], half-maximal inhibition (IC50) required 180 nM.

`CC1(C)OCC(N)=N[C@](C)(c2cc(C3=CCOCC3)ccc2F)C1(F)F` [Example 5, (R)-5-[5-(3,6-Dihydro-2H-pyran-4-yl)-2-fluoro-phenyl]-6,6-difluoro-5,7,7-trimethyl-2,5,6,7-tetrahydro-[1,4]oxazepin-3-ylamine] showed an IC50 of 430 nM.

For `CC1(C)OCC(N)=N[C@](C)(c2cc(-c3cnn(-c4ccc(F)cc4)c3)ccc2F)C1(F)F` [Example 6, (R)-6,6-Difluoro-5-{2-fluoro-5-[1-(4-fluoro-phenyl)-1H-pyrazol-4-yl]-phenyl}-5,7,7-trimethyl-2,5,6,7-tetrahydro-[1,4]oxazepin-3-ylamine], the IC50 was 520 nM.

On to `Cn1nccc1-c1ccc(F)c([C@@]2(C)N=C(N)COC(C)(C)C2(F)F)c1` [Example 7, (R)-6,6-Difluoro-5-[2-fluoro-5-(2-methyl-2H-pyrazol-3-yl)-phenyl]-5,7,7-trimethyl-2,5,6,7-tetrahydro-[1,4]oxazepin-3-ylamine], for which half-maximal inhibition (IC50) required 540 nM.

Consider `CC1(C)OCC(N)=N[C@](C)(c2cc(C3CCOCC3)ccc2F)C1(F)F` [Example 8, (R)-6,6-Difluoro-5-[2-fluoro-5-(tetrahydro-pyran-4-yl)-phenyl]-5,7,7-trimethyl-2,5,6,7-tetrahydro-[1,4]oxazepin-3-ylamine], for which the IC50 came to 650 nM.

Consider `CC1(C)OCC(N)=N[C@](C)(c2cc(C#Cc3cccc(Cl)c3)ccc2F)C1(F)F` [Example 9, (R)-5-[5-(3-Chloro-phenylethynyl)-2-fluoro-phenyl]-6,6-difluoro-5,7,7-trimethyl-2,5,6,7-tetrahydro-[1,4]oxazepin-3-ylamine], for which inhibition was half-maximal at 1340 nM (IC50).

Take `CC1(C)OCC(N)=N[C@](C)(c2cc(-c3ccc(C#N)cc3F)ccc2F)C1(F)F` [Example 13, 3′-((R)-3-amino-6,6-difluoro-5,7,7-trimethyl-2,5,6,7-tetrahydro-[1,4]oxazepin-5-yl)-2,4′-difluoro-biphenyl-4-carbonitrile]: the IC50 amounted to 92 nM.

Compound `Cc1nc(C#Cc2ccc(F)c([C@@]3(C)N=C(N)COC(C)(C)C3(F)F)c2)cs1` [Example 17, (R)-6,6-Difluoro-5-[2-fluoro-5-(2-methyl-thiazol-4-ylethynyl)-phenyl]-5,7,7-trimethyl-2,5,6,7-tetrahydro-[1,4]oxazepin-3-ylamine] came in with an IC50 of 800 nM.

`CC1(C)OCC(N)=N[C@](C)(c2cc(-c3nc4ccc(Cl)cc4o3)ccc2F)C1(F)F` [Example 19, (R)-5-[5-(6-Chloro-benzooxazol-2-yl)-2-fluoro-phenyl]-6,6-difluoro-5,7,7-trimethyl-2,5,6,7-tetrahydro-[1,4]oxazepin-3-ylamine hydrochloride] displayed an IC50 of 250 nM.

Take `CC1(C)OCC(N)=N[C@](C)(c2cc(-c3cncnc3)c(F)cc2F)C1(F)F` [Example 25, (R)-6,6-Difluoro-5-(2,4-difluoro-5-pyrimidin-5-yl-phenyl)-5,7,7-trimethyl-2,5,6,7-tetrahydro-[1,4]oxazepin-3-ylamine]: the IC50 amounted to 7 nM.

`CC1(C)OCC(N)=N[C@](C)(c2cc(-c3cncc(Cl)c3)c(F)cc2F)C1(F)F` [Example 26, (R)-5-[5-(5-Chloro-pyridin-3-yl)-2,4-difluoro-phenyl]-6,6-difluoro-5,7,7-trimethyl-2,5,6,7-tetrahydro-[1,4]oxazepin-3-ylamine] had an IC50 of 81 nM.

As to `CC1(C)OCC(N)=N[C@](C)(c2cc(-c3ccc(C#N)cc3)c(F)cc2F)C1(F)F` [Example 27, 5′-((R)-3-amino-6,6-difluoro-5,7,7-trimethyl-2,5,6,7-tetrahydro-[1,4]oxazepin-5-yl)-2′,4′-difluoro-biphenyl-4-carbonitrile], the IC50 turned out to be 430 nM.

As to `CC1(C)OCC(N)=N[C@](C)(c2cc(-c3cccc(C#N)c3)c(F)cc2F)C1(F)F` [Example 28, 5′-((R)-3-Amino-6,6-difluoro-5,7,7-trimethyl-2,5,6,7-tetrahydro-[1,4]oxazepin-5-yl)-2′,4′-difluoro-biphenyl-3-carbonitrile], it took 790 nM to reach half-maximal inhibition (IC50).

The next experiment concerns the target T1, BACE1. Briefly: Cellular Aβ-lowering assay b): HEK293 APP Abeta 40 AlphaLISA Assay. It counts as cell-based. As to conditions: assay b): HEK293 APP cells, Aβ 40 in supernatant by AlphaLISA, 18-20 hrs incubation. As to the method:
b) HEK293 APP: Abeta 40 AlphaLISA Assay
The cells were seeded in 96 well Microtiter plates in cell culture medium (Iscove's, plus 10% (v/v) fetal bovine serum, penicillin/streptomycin) to about 80% confluency and the compounds were added at a 3× concentration in ⅓ volume of culture medium (final DMSO concentration was kept at 1% v/v). After 18-20 hrs incubation at 37° C. and 5% CO2 in a humidified incubator, the culture supernatants were harvested for the determination of Aβ 40 concentrations using Perkin-Elmer Human Amyloid beta 1-40 (high specificity) Kit (Cat#AL275C).
In a Perkin-Elmer White Optiplate-384 (Cat#6007290), […] culture supernatants were combined with 2 μl of a 10X AlphaLISA Anti-hAβ Acceptor beads+Biotinylated Antibody Anti-Aβ 1-40 Mix (50 μg/mL/5 nM). After 1 hour room temperature incubation, 16 μl of a 1.25× preparation of Streptavidin (SA) Donor beads (25 μg/mL) were added and incubated for 30 minutes in the Dark. Light Emission at 615 nm was then recorded using EnVision-Alpha Reader. Levels of Aβ 40 in the culture supernatants were calculated as percentage of maximum signal (cells treated with 1% DMSO without inhibitor). The IC50 values were calculated using the Excel XLfit software.
In general terms: In Alpha technology, singlet oxygen from a donor bead excites a nearby acceptor bead.
`CC1(C)OCC(N)=N[C@](C)(c2cc(-c3nc4cc(Cl)ccc4o3)c(F)cc2F)C1(F)F` [Example 41, (R)-5-[5-(5-Chloro-benzooxazol-2-yl)-2,4-difluoro-phenyl]-6,6-difluoro-5,7,7-trimethyl-2,5,6,7-tetrahydro-[1,4]oxazepin-3-ylamine] gave an IC50 of 550 nM.

Regarding `CC1(C)OCC(N)=N[C@](C)(c2cc(-c3nc4cc(F)c(F)cc4o3)c(F)cc2F)C1(F)F` [Example 42, (R)-5-[5-(5,6-Difluoro-benzooxazol-2-yl)-2,4-difluoro-phenyl]-6,6-difluoro-5,7,7-trimethyl-2,5,6,7-tetrahydro-[1,4]oxazepin-3-ylamine], the IC50 is 550 nM.

Take `CC1(C)OCC(N)=N[C@](C)(c2cc(-c3nc4ccc(C(F)(F)F)cc4o3)c(F)cc2F)C1(F)F` [Example 43, (R)-5-[2,4-Difluoro-5-(6-trifluoromethyl-benzooxazol-2-yl)-phenyl]-6,6-difluoro-5,7,7-trimethyl-2,5,6,7-tetrahydro-[1,4]oxazepin-3-ylamine]: half-maximal inhibition (IC50) was put at 70 nM.

Values taken from patent US8877744B2, “1,4-Oxazepines as BACE1 and/or BACE2 inhibitors” (Hoffmann-La Roche Inc., priority 2011, dated 2014).
